# In US10206394B2, “Herbicidal compounds” (Syngenta Participations AG, priority 2014, dated 2019):
# Like-named read-outs stand apart in the source and are kept apart here.
# Assays:
# Experiment in all cases: Glasshouse assay for herbicidal activity (pre- and post-emergence), percentage phytotoxicity
# Type in all cases: in vivo
# [1] = system: Alopecurus myosuroides (ALOMY); conditions: Alopecurus myosuroides
# Method in brief: (§1)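 Pot-grown, standard soil. PRE: spray 1 d post-sowing; POST: ~12 d. Glasshouse 24/18 °C (warm spp.) / 20/16 °C (cool spp.), 16 h light, 65% RH, watered 2×/day. Visual % damage, 20 DAA PRE, 15 DAA POST.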
# Avena fatua (AVEFA) = conditions: Avena fatua
# Method in brief: as §1
# [2] = system: Echinochloa crus-galli (ECHCG); conditions: Echinochloa crus-galli
# Method in brief: as §1
# Lolium perenne (LOLPE) = conditions: Lolium perenne
# Method in brief: as §1
# [3] = post-emergence, 360 h, Rate 250 g/ha, post-emergence, assessed visually 15 DAA, 100%=total damage, 0%=no damage, read-out: Post-emergence herbicidal activity (percentage phytotoxicity) ALOMY POST
# [4] = pre-emergence, 480 h, Rate 250 g/ha, pre-emergence, assessed visually 20 DAA, 100%=total damage, 0%=no damage, read-out: Pre-emergence herbicidal activity (percentage phytotoxicity) ALOMY PRE
# [5] = post-emergence, 360 h, Rate 250 g/ha, post-emergence, assessed visually 15 DAA, 100%=total damage, 0%=no damage, read-out: Post-emergence herbicidal activity (percentage phytotoxicity) AVEFA POST
# [6] = pre-emergence, 480 h, Rate 250 g/ha, pre-emergence, assessed visually 20 DAA, 100%=total damage, 0%=no damage, read-out: Pre-emergence herbicidal activity (percentage phytotoxicity) AVEFA PRE
# [7] = post-emergence, 360 h, Rate 250 g/ha, post-emergence, assessed visually 15 DAA, 100%=total damage, 0%=no damage, read-out: Post-emergence herbicidal activity (percentage phytotoxicity) ECHCG POST
# [8] = pre-emergence, 480 h, Rate 250 g/ha, pre-emergence, assessed visually 20 DAA, 100%=total damage, 0%=no damage, read-out: Pre-emergence herbicidal activity (percentage phytotoxicity) ECHCG PRE
# [9] = post-emergence, 360 h, Rate 250 g/ha, post-emergence, assessed visually 15 DAA, 100%=total damage, 0%=no damage, read-out: Post-emergence herbicidal activity (percentage phytotoxicity) LOLPE POST
# [10] = pre-emergence, 480 h, Rate 250 g/ha, pre-emergence, assessed visually 20 DAA, 100%=total damage, 0%=no damage, read-out: Pre-emergence herbicidal activity (percentage phytotoxicity) LOLPE PRE
# [11] = post-emergence, 360 h, POST-emergence, rate 250 g/ha, visual score 15 DAA (100%=total damage, 0%=no damage), read-out: Post-emergence herbicidal activity (percentage phytotoxicity) ALOMY POST
# [12] = pre-emergence, 480 h, PRE-emergence, rate 250 g/ha, visual score 20 DAA (100%=total damage, 0%=no damage), read-out: Pre-emergence herbicidal activity (percentage phytotoxicity) ALOMY PRE
# [13] = post-emergence, 360 h, POST-emergence, rate 250 g/ha, visual score 15 DAA (100%=total damage, 0%=no damage), read-out: Post-emergence herbicidal activity (percentage phytotoxicity) AVEFA POST
# [14] = pre-emergence, 480 h, PRE-emergence, rate 250 g/ha, visual score 20 DAA (100%=total damage, 0%=no damage), read-out: Pre-emergence herbicidal activity (percentage phytotoxicity) AVEFA PRE
# [15] = post-emergence, 360 h, POST-emergence, rate 250 g/ha, visual score 15 DAA (100%=total damage, 0%=no damage), read-out: Post-emergence herbicidal activity (percentage phytotoxicity) ECHCG POST
# [16] = pre-emergence, 480 h, PRE-emergence, rate 250 g/ha, visual score 20 DAA (100%=total damage, 0%=no damage), read-out: Pre-emergence herbicidal activity (percentage phytotoxicity) ECHCG PRE
# [17] = post-emergence, 360 h, POST-emergence, rate 250 g/ha, visual score 15 DAA (100%=total damage, 0%=no damage), read-out: Post-emergence herbicidal activity (percentage phytotoxicity) LOLPE POST
# [18] = pre-emergence, 480 h, PRE-emergence, rate 250 g/ha, visual score 20 DAA (100%=total damage, 0%=no damage), read-out: Pre-emergence herbicidal activity (percentage phytotoxicity) LOLPE PRE
Structure (SMILES),"pest or weed control at 250 g/ha [1, 3]","pest or weed control at 250 g/ha [1, 4]",pest or weed control at 250 g/ha (Avena fatua (AVEFA); [5]),pest or weed control at 250 g/ha (Avena fatua (AVEFA); [6]),"pest or weed control at 250 g/ha [2, 7]","pest or weed control at 250 g/ha [2, 8]",pest or weed control at 250 g/ha (Lolium perenne (LOLPE); [9]),pest or weed control at 250 g/ha (Lolium perenne (LOLPE); [10]),"pest or weed control at 250 g/ha [1, 11]","pest or weed control at 250 g/ha [1, 12]",pest or weed control at 250 g/ha (Avena fatua (AVEFA); [13]),pest or weed control at 250 g/ha (Avena fatua (AVEFA); [14]),"pest or weed control at 250 g/ha [2, 15]","pest or weed control at 250 g/ha [2, 16]",pest or weed control at 250 g/ha (Lolium perenne (LOLPE); [17]),pest or weed control at 250 g/ha (Lolium perenne (LOLPE); [18]),other results
C=CCCNC(=O)CC1CC(=O)C(c2c(C)cc(C#CC)cc2C)C1=O (stereo not drawn) [Compound A57],100%,100%,100%,90%,100%,100%,100%,100%,–,–,–,–,–,–,–,–,–
CCc1cc(C)cc(C)c1C1C(=O)CC(CC(=O)N(C)CC)C1=O (stereo not drawn) [Compound B258],–,–,–,–,–,–,–,–,100%,100%,100%,90%,100%,100%,100%,100%,–
Cc1cc(-n2cc(Cl)c(C)n2)cc(C)c1C1C(=O)CC(CC(=O)NC(C)(C)C)C1=O (stereo not drawn) [Compound B105],–,–,–,–,–,–,–,–,–,–,–,–,–,–,–,–,"pest or weed control at 250 g/ha ([1]; post-emergence, 360 h, 250 g/ha, post-emergence, 15 DAA, visual assessment (100%=total damage, 0%=no damage), read-out: Post-emergence herbicidal activity (percentage phytotoxicity) ALOMY POST): 70%; pest or weed control at 250 g/ha ([1]; pre-emergence, 480 h, 250 g/ha, pre-emergence, 20 DAA, visual assessment (100%=total damage, 0%=no damage), read-out: Pre-emergence herbicidal activity (percentage phytotoxicity) ALOMY PRE): 70%; pest or weed control at 250 g/ha (Avena fatua (AVEFA); post-emergence, 360 h, 250 g/ha, post-emergence, 15 DAA, visual assessment (100%=total damage, 0%=no damage), read-out: Post-emergence herbicidal activity (percentage phytotoxicity) AVEFA POST): 60%; pest or weed control at 250 g/ha (Avena fatua (AVEFA); pre-emergence, 480 h, 250 g/ha, pre-emergence, 20 DAA, visual assessment (100%=total damage, 0%=no damage), read-out: Pre-emergence herbicidal activity (percentage phytotoxicity) AVEFA PRE): 20%; pest or weed control at 250 g/ha ([2]; post-emergence, 360 h, 250 g/ha, post-emergence, 15 DAA, visual assessment (100%=total damage, 0%=no damage), read-out: Post-emergence herbicidal activity (percentage phytotoxicity) ECHCG POST): 100%; pest or weed control at 250 g/ha ([2]; pre-emergence, 480 h, 250 g/ha, pre-emergence, 20 DAA, visual assessment (100%=total damage, 0%=no damage), read-out: Pre-emergence herbicidal activity (percentage phytotoxicity) ECHCG PRE): 100%; pest or weed control at 250 g/ha (Lolium perenne (LOLPE); post-emergence, 360 h, 250 g/ha, post-emergence, 15 DAA, visual assessment (100%=total damage, 0%=no damage), read-out: Post-emergence herbicidal activity (percentage phytotoxicity) LOLPE POST): 60%; pest or weed control at 250 g/ha (Lolium perenne (LOLPE); pre-emergence, 480 h, 250 g/ha, pre-emergence, 20 DAA, visual assessment (100%=total damage, 0%=no damage), read-out: Pre-emergence herbicidal activity (percentage phytotoxicity) LOLPE PRE): 70%"
Cc1cc(-c2ccc(Cl)cn2)cc(C)c1C1C(=O)CC(CC(=O)NCc2ncccc2Cl)C1=O (stereo not drawn) [Compound A132],100%,90%,100%,90%,100%,100%,100%,90%,–,–,–,–,–,–,–,–,–
Cc1cc(C)c(C2C(=O)CC(CC(=O)NCc3ncccc3Cl)C2=O)c(C)c1 (stereo not drawn) [Compound A107],80%,80%,90%,10%,70%,80%,80%,90%,–,–,–,–,–,–,–,–,–
C/C=C/c1cc(C)c(C2C(=O)CC(CC(=O)N(C)CC)C2=O)c(C)c1 (stereo not drawn) [Compound B248],–,–,–,–,–,–,–,–,100%,50%,100%,50%,100%,60%,100%,80%,–
